# How the values were obtained:
# [1] = test system: E-selectin; experiment: U937 cell adhesion to immobilized E-selectin; format: cell-based; conditions: immobilized E-selectin chimera
# Description: U937 cell binding to immobilized E-, L- or P-selectin. […] After blocking the plate with 10% BSA in PBS, P-selectin (0.05 μg/well), L-selectin (4 μg/well) or E-selectin (1 μg/well) chimeras were added. After 1 hr, wells were washed with blocking solution. U937 cells were grown in RPMI-1640 medium (containing 10% fetal bovine serum (FBS), 100 U/ml penicillin and 100 μg/ml streptomycin in an atmosphere of 5% CO2 in air and 100% relative humidity. The cells were fluorescently labeled with 10 μM calcein AM in RPMI 1640 medium containing 2.5% FBS for 30 min at 37° C. The cells were collected by low speed centrifugation, washed three times with RPMI 1640 medium, and resuspended at a density of 2×10^6 cells/mL in medium without FBS. Heparin and test compounds, or 10 mM sodium EDTA (negative control) were added at 50 μL/well, and then the fluorescently labeled U937 cell suspension (50 μL/well) was added and incubated for 30 min at room temperature. Non-adherent cells were removed by rinsing the plates three times with PBS, and the number of adherent cells was quantified by measuring the fluorescence intensity at 485 nm after […] 2% Triton X-100 in 0.1 M Tris-HCl, pH 9.5. Raw data were converted to relative fluorescence intensity (RFI) for comparative purposes.
# [2] = test system: neutrophil and macrophage recruitment; experiment: Thioglycollate induced murine model of peritoneal inflammation; format: in vivo, mouse; conditions: C57BL mice
# Description: Acute inflammation was induced in a mouse model by thioglycollate injection into the peritoneal cavity.
# Thioglycollate induced murine model of peritoneal inflammation. Mice (C57BL, male, 6-8 weeks old) were injected intraperitoneally with 2 mL of 3% thioglycollate broth. Five minutes later, animals received intravenous injections of 0.2 mL sterile pyrogen-free saline (S) with and without heparin (H) or analogs (3c) (0.5 mg/mouse with 0.2 ml saline). Mice were sacrificed after 3 hours and peritoneal cells harvested by lavage with 8 mL of ice-cold phosphate buffered saline (PBS) containing 3 mM EDTA. Peritoneal cells were counted and cells stained for 30 minutes at 4° C. with FITC-conjugated rat anti-mouse Gr-1 mAb diluted in PBS containing 2.5% FBS. After washing three times with PBS, FACScan analysis was performed as described by Wang et al. (2002) and was used to sort, count and analyze the percentage of neutrophils and macrophages which were converted to the cell number using the formula N/M=Total cell number X % of NIM, respectively (N:Neutrophil; M: Macrophages). The cells were gated (FACS) expressing a high level of Gr-1 antigen (N) and Mac-1 (M). (See additional ref: Lagasse; E., Weissman; I. J. Immunological Meth. 1996, 197, 139-150). Statistical differences among groups were analyzed by ANOVA method using StatView software.
substance,measurement,setting,value
heparin,inhibitory activity toward E-selectin (U937 cell adhesion),[1],Neither heparin nor 3c exhibited substantial inhibitory activity
same,in vivo activity on inflammatory cell recruitment (in words),[2],inhibited inflammatory cell recruitment to a similar degree

# Reference: patent US20080268013A1, “Polyethylene Oxide Polymers Including Anti-Inflammatory Glycodendrons” (EMORY UNIVERSITY, priority 2005, published 2008)
